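Dose response: 5 concentrations. Exposure: 48 h. Format: 96-well plates. Endpoint: linear interpolation; highest concentration if not reached. GI50: concentration for 50% inhibition of growth. TGI is the concentration that stops growth completely.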
Experiments:
Assay in all cases: NCI tumour cell line growth inhibition, 48 h
A549 NSCLC = system: A549 NSCLC
BT-549 breast = system: BT-549 breast
TK-10 renal = system: TK-10 renal
SNB-19 CNS = system: SNB-19 CNS
UACC-257 melanoma = system: UACC-257 melanoma
SK-OV-3 ovarian = system: SK-OV-3 ovarian
UACC-62 melanoma = system: UACC-62 melanoma
NCI-H23 lung = system: NCI-H23 lung
IGROV1 ovarian = system: IGROV1 ovarian
HOP-62 NSCLC = system: HOP-62 NSCLC

| Compound | GI50 (A549 NSCLC) [µM] | TGI (A549 NSCLC) [µM] | GI50 (BT-549 breast) [µM] | TGI (BT-549 breast) [µM] | GI50 (TK-10 renal) [µM] | TGI (TK-10 renal) [µM] | GI50 (SNB-19 CNS) [µM] | TGI (SNB-19 CNS) [µM] | GI50 (UACC-257 melanoma) [µM] | TGI (UACC-257 melanoma) [µM] | GI50 (SK-OV-3 ovarian) [µM] | TGI (SK-OV-3 ovarian) [µM] | GI50 (UACC-62 melanoma) [µM] | TGI (UACC-62 melanoma) [µM] | GI50 (NCI-H23 lung) [µM] | TGI (NCI-H23 lung) [µM] | GI50 (IGROV1 ovarian) [µM] | TGI (IGROV1 ovarian) [µM] | GI50 (HOP-62 NSCLC) [µM] | TGI (HOP-62 NSCLC) [µM] |
| --- | --- | --- | --- | --- | --- | --- | --- | --- | --- | --- | --- | --- | --- | --- | --- | --- | --- | --- | --- | --- |
| COc1cc(/C=C2\C(=O)N(c3c(Cl)cccc3Cl)c3ccccc32)cc(OC)c1O | 1.24 | 10.1 | 3.2 | 18.4 | 1.21 | 15.6 | 0.742 | 19.3 | 2.19 | 19.6 | 2.06 | 18.9 | 0.594 | 13.2 | 1.47 | 14.4 | 1.01 | 15 | 1.23 | 20.3 |
| O=C(Oc1ccc([N+](=O)[O-])cc1)N1CCC(C(O)(c2ccc3c(c2)OCO3)c2ccc3c(c2)OCO3)CC1 | > 100 | > 100 | > 100 | > 100 | > 100 | > 100 | > 100 | > 100 | > 100 | > 100 | > 100 | > 100 | > 100 | > 100 | > 100 | > 100 | > 100 | > 100 | > 100 | > 100 |
| N#Cc1ccc(-n2cnc(NC(=O)[C@H]3CCN(C#N)C3)c2)cc1 | 3.15 | > 100 | 0.248 | 2.47 | 1.49 | 7.83 | 3.51 | 98.7 | 1.94 | 10.1 | 3.77 | > 51.4 | 0.892 | 4.47 | 1.78 | 12.6 | 2.01 | > 100 | 2.28 | 15.5 |
| COc1ccc2[nH]cc(/C=C3\C(=O)Nc4ccccc43)c2c1 | 4.68 | 24.4 | 2.9 | 21.4 | 7.98 | 31.3 | 8.7 | > 100 | 14.3 | 73.1 | 4.75 | 21.5 | 4.09 | 20.6 | 10.5 | 49.6 | 2.82 | 16.8 | 5.18 | 19.8 |
| CCOC(=O)C(=Cc1ccc(Br)cc1)C(=O)OCC | 2.28 | 5.83 | 1.49 | 3.11 | 3.13 | 8.57 | 2.47 | 7.55 | 1.88 | 4.15 | 5.41 | 17 | 1.39 | 3.29 | 2.32 | 5.7 | 1.81 | 3.94 | 2.78 | 5.47 |
| COC(=O)/C(=C/N1CCN(C(=O)c2ccco2)C1=S)C(C)=O | 19.3 | 39.7 | 3.48 | 9.03 | 3.54 | 14.9 | 41.7 | 94.8 | 17.2 | 39.3 | 31.3 | 78.2 | 11.5 | 28.3 | 12.2 | 31.9 | 10.4 | 36 | 20.6 | 42.8 |
| C[C@]12CC[C@@H]3c4ccc(O)cc4CC[C@H]3[C@@H]1CC[C@@H]2NS(=O)(=O)c1cccc(Br)c1 | 3.11 | 13.1 | 3.05 | 10.3 | 3.43 | 12.1 | 7.09 | 20.4 | 5.1 | 20 | 6.8 | 18.6 | 3.19 | 12.9 | 3.89 | 17 | 4.04 | 16.5 | 10.4 | 22.5 |
| O=C1OC(c2ccc([N+](=O)[O-])cc2)=N/C1=C\c1ccc(O)cc1 | – | > 100 | – | > 100 | – | > 100 | – | > 100 | – | > 100 | – | > 100 | – | > 100 | – | > 100 | – | > 100 | – | > 100 |
| NC(C(=O)O)C(N)C(=O)O (stereo not given) | – | > 100 | – | > 100 | – | > 100 | – | > 100 | – | > 100 | – | > 100 | – | > 100 | – | > 100 | – | > 100 | – | > 100 |
| Cc1oc2c(c1C(=O)c1ccccc1)C(=O)c1ccccc1C2=O | – | 40.2 | – | 19.9 | – | 33.2 | – | 23.7 | – | 10.5 | – | 20.7 | – | 7.72 | – | 8.36 | – | 15.9 | – | 22.4 |
| CSC(=S)NN=C1CCCCC1 | – | > 100 | – | > 100 | – | 89.7 | – | > 100 | – | > 100 | – | > 100 | – | 38 | – | > 100 | – | 43.3 | – | > 100 |
